Reference: US20220242846A1, “ISOINDOLINONE COMPOUNDS” (Monte Rosa Therapeutics AG, priority 2019, published 2022)
Where two headings read alike, the source gives them in different places.

Legend:
[1] = tested on: Human mammary epithelial cells (HMEC) engineered to express c-myc tagged with EGFP; assay: 3D spheroid assay, myc-HMEC (CellTiterGlo3D viability); type: cell-based
Description: (§1) 3D Spheroid Experiments—HMEC
(§2) Human mammary epithelial cells (HMEC) were engineered to express either c-myc tagged with EGFP or EGFP alone (non myc) (analogous but distinct from Kessler J D et al, Science. 2012 Jan. 20; 335(6066):348-53. doi: 10.1126/science.1212728; Hsu T Y et al, Nature. 2015 Sep. 17; 525(7569):384-8. doi: 10.1038/nature14985). The engineered cells were seeded at 1000 (myc) or 4000 (non myc) cells/well in a 384 ultra-low attachment plate in a total volume of 40 µL, HMEC cell culture media (DMEM/F12+10% HI-FBS+15 mM HEPES+0.5 ug/ml Hydrocortisone+10 ug/ml Insulin+20 ng/ml EGF). Plates were spun at 1200 rpm for 5 minutes at room temperature to ensure that cells have gathered in the middle of the well and incubated at 37° C. for 48 hrs before firing with compounds. On Day 2 (48 h post seeding) cells were imaged (brightfield and EGFP fluorescence) using the Celigo imaging cytometer prior to firing compounds. For primary screens, compounds were added at three concentrations (1.25, 10 and 30 uM) in a volume of 120 nL using the ECHO acoustic dispenser and spun at 2000 rpm for 2 minutes at room temperature before incubating at 37° C. for 5 days. […] On Day 7, prior to measuring cell viability using CellTiterGlo3D, cells were imaged (brightfield and EGFP fluorescence) on the Celigo imaging cytometer. The CellTiterGlo3D reagent is added at 30uL/well and incubated at room temperature for 30mins After 30mins of incubation, luminescence readings were recorded using the Perkin Elmer EnVision reader.

[2] = target: T1, Full length wild-type cereblon CRBN (Homo sapiens, UniProt Q96SW2); assay: Fluorescence polarization (FP) assay indicating cereblon binding; conditions: CRBN 80.0 nM, fluorescent probe 5 nM, FP measured after 12 hours; read-out: rFP IC50
T1 construct: Full length wild-type cereblon CRBN (80.0 nM, 10 μL) was incubated in assay buffer
Summary of the method: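 Full-length wild-type human CRBN (80.0 nM) preincubated 30 min at room temperature with compound (12-point curve, 300-0.937 or 3000-9.3 nM) in HEPES pH 8.0, NaCl, TCEP, Tween 20. Thalidomide-based Cy5-type probe then added at 5 nM final; FP read after 12 h (ex 590, em 675 nm), normalized to DMSO, IC50 derived.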

GSPT1 = GSPT1 (Homo sapiens, UniProt P15170+Q96SW2); assay: Immunofluorescence assay for GSPT1 degradation in CAL-51 cells; type: cell-based; parameters: CAL-51 cells were purchased from DSMZ (cat. Number ACC302); endogenous in cells; host or cells: CAL-51 (DSMZ ACC302); conditions: compound treatment 6 hours, read-out: Code: activity for GSPT1 degradation (DC50)
Summary of the method: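 CAL-51 cells on fibronectin-coated plates treated 6 h with compound (30 μM to 0.1 nM); fixed, stained with anti-GSPT1/Alexa-488, phalloidin and DAPI, imaged by high-content microscopy. Mean GSPT1 intensity per cell normalized to controls; DC50 by non-linear regression.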

[3] = tested on: Human mammary epithelial cells (HMEC) engineered to express EGFP alone (non myc); assay: 3D spheroid assay, non myc-HMEC (CellTiterGlo3D viability); type: cell-based; conditions: 120 h, 3D spheroids, 5 days with compound, read-out: Code: EC50 value in the non myc-HMEC assay
Description: as §1, §2

[4] = Homo sapiens, HMEC, 120 h, 3D spheroids, 5 days with compound, read-out: Code: EC50 value in the myc-HMEC assay
[5] = myc-HMEC 3D spheroids (compounds with code D and E), 5 days, read-out: EC50

T1 sequence (Q96SW2 whole entry): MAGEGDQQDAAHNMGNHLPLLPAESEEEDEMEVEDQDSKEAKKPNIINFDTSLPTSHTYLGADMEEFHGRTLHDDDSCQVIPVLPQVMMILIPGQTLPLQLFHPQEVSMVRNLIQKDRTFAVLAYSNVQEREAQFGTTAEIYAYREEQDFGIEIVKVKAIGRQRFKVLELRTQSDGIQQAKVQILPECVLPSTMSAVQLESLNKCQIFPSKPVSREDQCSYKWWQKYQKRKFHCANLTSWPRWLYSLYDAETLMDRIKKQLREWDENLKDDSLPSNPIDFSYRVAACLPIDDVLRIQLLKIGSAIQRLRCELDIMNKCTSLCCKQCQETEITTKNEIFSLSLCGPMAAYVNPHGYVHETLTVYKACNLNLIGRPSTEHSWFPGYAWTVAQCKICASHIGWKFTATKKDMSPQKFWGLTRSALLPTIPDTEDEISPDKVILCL
GSPT1, sequence (P15170 whole entry): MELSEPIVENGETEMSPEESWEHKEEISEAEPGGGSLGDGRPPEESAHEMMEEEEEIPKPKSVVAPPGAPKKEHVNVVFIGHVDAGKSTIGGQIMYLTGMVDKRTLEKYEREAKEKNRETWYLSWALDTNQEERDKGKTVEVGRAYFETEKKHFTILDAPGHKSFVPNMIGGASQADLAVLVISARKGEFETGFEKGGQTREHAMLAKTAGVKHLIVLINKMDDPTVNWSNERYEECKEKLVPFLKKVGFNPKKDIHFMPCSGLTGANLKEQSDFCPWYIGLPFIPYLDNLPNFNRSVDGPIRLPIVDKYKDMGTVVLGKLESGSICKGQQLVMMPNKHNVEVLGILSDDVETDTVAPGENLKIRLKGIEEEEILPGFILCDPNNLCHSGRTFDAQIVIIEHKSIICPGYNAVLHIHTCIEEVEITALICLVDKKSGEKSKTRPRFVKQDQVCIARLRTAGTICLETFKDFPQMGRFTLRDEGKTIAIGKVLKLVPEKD
GSPT1, sequence (Q96SW2 whole entry): as the sequence (Q96SW2 whole entry) above
GSPT1, sequence (Q16531 2-1140 partner limits assumed): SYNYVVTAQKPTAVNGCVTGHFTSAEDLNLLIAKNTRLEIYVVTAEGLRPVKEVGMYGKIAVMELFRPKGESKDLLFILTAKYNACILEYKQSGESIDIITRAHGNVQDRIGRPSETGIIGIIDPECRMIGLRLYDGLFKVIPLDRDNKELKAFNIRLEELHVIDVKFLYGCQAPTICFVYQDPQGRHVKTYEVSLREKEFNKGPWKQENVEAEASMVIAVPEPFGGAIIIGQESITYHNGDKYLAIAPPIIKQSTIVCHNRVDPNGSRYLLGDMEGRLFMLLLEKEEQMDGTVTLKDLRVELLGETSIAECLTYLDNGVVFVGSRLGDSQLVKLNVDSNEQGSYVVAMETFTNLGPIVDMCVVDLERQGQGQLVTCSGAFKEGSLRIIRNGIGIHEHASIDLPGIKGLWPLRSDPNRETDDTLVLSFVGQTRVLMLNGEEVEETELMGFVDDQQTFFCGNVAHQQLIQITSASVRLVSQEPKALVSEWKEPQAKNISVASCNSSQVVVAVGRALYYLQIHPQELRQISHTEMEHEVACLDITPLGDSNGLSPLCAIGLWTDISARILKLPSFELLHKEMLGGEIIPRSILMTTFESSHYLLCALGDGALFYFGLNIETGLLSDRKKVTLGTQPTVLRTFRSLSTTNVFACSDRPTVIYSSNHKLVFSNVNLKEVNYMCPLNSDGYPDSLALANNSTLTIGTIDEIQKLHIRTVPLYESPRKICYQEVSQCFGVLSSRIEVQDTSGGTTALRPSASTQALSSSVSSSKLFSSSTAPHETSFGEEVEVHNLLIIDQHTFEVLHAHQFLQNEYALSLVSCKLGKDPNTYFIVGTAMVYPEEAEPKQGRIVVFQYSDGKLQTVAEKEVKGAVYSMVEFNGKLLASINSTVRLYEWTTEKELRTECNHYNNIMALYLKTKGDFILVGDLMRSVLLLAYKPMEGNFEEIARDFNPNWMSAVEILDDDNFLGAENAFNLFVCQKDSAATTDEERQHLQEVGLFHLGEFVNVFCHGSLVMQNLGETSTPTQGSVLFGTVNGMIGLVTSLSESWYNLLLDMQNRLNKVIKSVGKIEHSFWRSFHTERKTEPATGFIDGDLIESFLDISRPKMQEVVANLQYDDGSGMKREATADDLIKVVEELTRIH

IC50 [2]	DC50 (GSPT1)	SMILES	EC50 [1, 4]	EC50 [3]	EC50 [1, 5]
477 nM	> 300 nM	COc1ccc(CNC(=O)NCc2ccc3c(c2)C(=O)N(C2CCC(=O)NC2=O)C3)cc1 (stereo not shown) [Compound 52]	> 2000 nM	> 10000 nM	
483 nM	> 300 nM	O=C1CCC(N2Cc3ccc(CNC(=O)Nc4ccccc4Cl)cc3C2=O)C(=O)N1 (stereo not shown) [Compound 4]	> 2000 nM	> 10000 nM	
763 nM	> 300 nM	CC(C)(C)NC(=O)NCc1ccc2c(c1)C(=O)N(C1CCC(=O)NC1=O)C2 (stereo not shown) [Compound 10]	> 2000 nM	> 10000 nM	
580 nM	≤ 100 nM	COc1ccc(Cl)cc1NC(=O)NCc1ccc2c(c1)C(=O)N(C1CCC(=O)NC1=O)C2 (stereo not shown) [Compound 30]	≤ 400 nM	> 10000 nM	359 nM
672 nM	> 300 nM	Cc1ccccc1NC(=O)NCc1ccc2c(c1)C(=O)N(C1CCC(=O)NC1=O)C2 (stereo not shown) [Compound 37]	> 2000 nM	> 10000 nM	
637 nM	> 300 nM	O=C1CCC(N2Cc3ccc(CNC(=O)NCc4ccc(C(F)(F)F)cc4)cc3C2=O)C(=O)N1 (stereo not shown) [Compound 65]	> 2000 nM	> 10000 nM	
464 nM	> 300 nM	COc1ccc(NC(=O)NCc2ccc3c(c2)C(=O)N(C2CCC(=O)NC2=O)C3)c(C)c1 (stereo not shown) [Compound 23]	> 2000 nM	> 10000 nM	
591 nM	≤ 100 nM	O=C1CCC(N2Cc3ccc(CNC(=O)Nc4cccc(Cl)c4F)cc3C2=O)C(=O)N1 (stereo not shown) [Compound 33]	≤ 400 nM	> 10000 nM	250 nM
595 nM	100 to 300 nM	CCc1cccc(NC(=O)NCc2ccc3c(c2)C(=O)N(C2CCC(=O)NC2=O)C3)c1 (stereo not shown) [Compound 31]	400 to 2000 nM	> 10000 nM	457 nM
514 nM	> 300 nM	COc1ccc(C)cc1NC(=O)NCc1ccc2c(c1)C(=O)N(C1CCC(=O)NC1=O)C2 (stereo not shown) [Compound 17]	> 2000 nM	> 10000 nM	
467 nM	> 300 nM	COc1cccc(NC(=O)NCc2ccc3c(c2)C(=O)N(C2CCC(=O)NC2=O)C3)c1 (stereo not shown) [Compound 6]	> 2000 nM	> 10000 nM	
381 nM	> 300 nM	O=C1CCC(N2Cc3ccc(CNC(=O)Nc4cc(F)ccc4F)cc3C2=O)C(=O)N1 (stereo not shown) [Compound 69]	> 2000 nM	> 10000 nM	
434 nM	≤ 100 nM	CC(C)(C)c1ccc(NC(=O)NCc2ccc3c(c2)C(=O)N(C2CCC(=O)NC2=O)C3)cc1 (stereo not shown) [Compound 56]	≤ 400 nM	> 10000 nM	228 nM

Continued, compound first:

SMILES	IC50 [2]	DC50 (GSPT1)	EC50 [1, 4]	EC50 [3]	EC50 [1, 5]
COc1cccc(CNC(=O)NCc2ccc3c(c2)C(=O)N(C2CCC(=O)NC2=O)C3)c1 (stereo not shown) [Compound 53]	364 nM	> 300 nM	> 2000 nM	> 10000 nM	
O=C1CCC(N2Cc3ccc(CNC(=O)Nc4cc(Cl)ccc4Cl)cc3C2=O)C(=O)N1 (stereo not shown) [Compound 35]	602 nM	> 300 nM	> 2000 nM	> 10000 nM	
O=C1CCC(N2Cc3ccc(CNC(=O)NCCCc4ccccc4)cc3C2=O)C(=O)N1 (stereo not shown) [Compound 70]	253 nM	> 300 nM	> 2000 nM	> 10000 nM	
O=C1CCC(N2Cc3ccc(CNC(=O)NCC4CC4)cc3C2=O)C(=O)N1 (stereo not shown) [Compound 26]	907 nM	> 300 nM	> 2000 nM	> 10000 nM	
O=C1CCC(N2Cc3ccc(CNC(=O)Nc4cccc(Cl)c4Cl)cc3C2=O)C(=O)N1 (stereo not shown) [Compound 50]	479 nM	> 300 nM	> 2000 nM	> 10000 nM	
Cc1ccc(F)c(NC(=O)NCc2ccc3c(c2)C(=O)N(C2CCC(=O)NC2=O)C3)c1 (stereo not shown) [Compound 67]	284 nM	> 300 nM	> 2000 nM	> 10000 nM	
O=C1CCC(N2Cc3ccc(CNC(=O)Nc4cccc(C(F)(F)F)c4)cc3C2=O)C(=O)N1 (stereo not shown) [Compound 47]	1080 nM	≤ 100 nM	400 to 2000 nM	> 10000 nM	544 nM
O=C1CCC(N2Cc3ccc(CNC(=O)Nc4cccc(F)c4)cc3C2=O)C(=O)N1 (stereo not shown) [Compound 34]	481 nM	> 300 nM	> 2000 nM	> 10000 nM	
O=C1CCC(N2Cc3ccc(CNC(=O)Nc4ccc(F)c(F)c4)cc3C2=O)C(=O)N1 (stereo not shown) [Compound 39]	587 nM	> 300 nM	> 2000 nM	> 10000 nM	
Cc1c(Cl)cccc1NC(=O)NCc1ccc2c(c1)C(=O)N(C1CCC(=O)NC1=O)C2 (stereo not shown) [Compound 19]	576 nM	> 300 nM	> 2000 nM	> 10000 nM	
Cc1cccc(C)c1NC(=O)NCc1ccc2c(c1)C(=O)N(C1CCC(=O)NC1=O)C2 (stereo not shown) [Compound 25]	612 nM	> 300 nM	> 2000 nM	> 10000 nM	
CCOc1ccc(NC(=O)NCc2ccc3c(c2)C(=O)N(C2CCC(=O)NC2=O)C3)cc1 (stereo not shown) [Compound 16]	817 nM	> 300 nM	> 2000 nM	> 10000 nM	
Cc1cccc(NC(=O)NCc2ccc3c(c2)C(=O)N(C2CCC(=O)NC2=O)C3)c1C (stereo not shown) [Compound 44]	747 nM	> 300 nM	> 2000 nM	> 10000 nM	
O=C1CCC(N2Cc3ccc(CNC(=O)NCCc4ccccc4)cc3C2=O)C(=O)N1 (stereo not shown) [Compound 27]	444 nM	> 300 nM	> 2000 nM	> 10000 nM	
O=C1CCC(N2Cc3ccc(CNC(=O)Nc4ccc(Cl)cc4Cl)cc3C2=O)C(=O)N1 (stereo not shown) [Compound 45]	472 nM	> 300 nM	> 2000 nM	> 10000 nM	
Cc1ccc(NC(=O)NCc2ccc3c(c2)C(=O)N(C2CCC(=O)NC2=O)C3)cc1 (stereo not shown) [Compound 21]	622 nM	> 300 nM	> 2000 nM	> 10000 nM	
